ChEMBL document CHEMBL1201862, “PubChem BioAssay data set” (2004)
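A five-concentration, 48-hour dose response in 96-well plates underlies each endpoint, interpolated linearly between surrounding concentrations. Abbreviation: GI50, concentration required for 50% inhibition of growth.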 Activity calls are given as the source filed them. Cut-off read from the data, not from the text of the source: active = GI50 up to about 1.1 µM and inactive = higher.

Legend:
Test in all cases: inhibition of tumour cell growth, NCI panel, 48 h
SK-MEL-28 = tested on: SK-MEL-28
HT-29 = tested on: HT-29
SK-MEL-2 = tested on: SK-MEL-2
SF-539 = tested on: SF-539
NCI-H23 = tested on: NCI-H23
SNB-75 = tested on: SNB-75
RPMI-8226 = tested on: RPMI-8226
DU-145 = tested on: DU-145
786-0 = tested on: 786-0
OVCAR-5 = tested on: OVCAR-5
CCRF-CEM = tested on: CCRF-CEM
HOP-62 = tested on: HOP-62
HCC 2998 = tested on: HCC 2998
SN12C = tested on: SN12C
PC-3 = tested on: PC-3
OVCAR-4 = tested on: OVCAR-4
SR = tested on: SR
K562 = tested on: K562
HL-60 = tested on: HL-60

| SMILES | GI50 (SK-MEL-28) | GI50 (HT-29) | GI50 (SK-MEL-2) | GI50 (SF-539) | GI50 (NCI-H23) | GI50 (SNB-75) | GI50 (RPMI-8226) | GI50 (DU-145) | GI50 (786-0) | GI50 (OVCAR-5) | GI50 (CCRF-CEM) | GI50 (HOP-62) | GI50 (HCC 2998) | GI50 (SN12C) | GI50 (PC-3) | GI50 (OVCAR-4) | GI50 (SR) | GI50 (K562) | GI50 (HL-60) |
| --- | --- | --- | --- | --- | --- | --- | --- | --- | --- | --- | --- | --- | --- | --- | --- | --- | --- | --- | --- |
| CC(=O)CC1(C)OC(N)=C(C#N)C1(C#N)C#N (stereo unspecified) | > 100 µM (inactive) | 88.9 µM (inactive) | > 100 µM (inactive) | 86.1 µM (inactive) | > 100 µM (inactive) | 47 µM (inactive) | > 100 µM (inactive) | > 100 µM (inactive) | > 100 µM (inactive) | > 100 µM (inactive) | 44.7 µM (inactive) | 55.1 µM (inactive) | > 100 µM (inactive) | > 100 µM (inactive) | > 100 µM (inactive) |  |  |  |  |
| O=c1[nH]c(C2CCCCC2)nc2cc(Cl)ccc12 | > 100 µM (inactive) | > 100 µM (inactive) | > 100 µM (inactive) | > 100 µM (inactive) | > 100 µM (inactive) | 55.6 µM (inactive) | > 100 µM (inactive) |  | 70 µM (inactive) | > 100 µM (inactive) |  |  | > 100 µM (inactive) | > 100 µM (inactive) |  | 67.3 µM (inactive) | > 100 µM (inactive) | > 100 µM (inactive) |  |
| Cc1ccc(NC(=O)CC(=O)n2nc(-c3ccccc3)c(/N=N\c3ccccc3[N+](=O)[O-])c2-c2ccccc2)cc1 | > 100 µM (inactive) | > 100 µM (inactive) | > 100 µM (inactive) | 37.2 µM (inactive) | > 100 µM (inactive) | 69.3 µM (inactive) | > 100 µM (inactive) |  | 28.4 µM (inactive) | > 100 µM (inactive) | > 100 µM (inactive) | 82.2 µM (inactive) | > 100 µM (inactive) | > 100 µM (inactive) |  | 45.3 µM (inactive) | > 100 µM (inactive) | > 100 µM (inactive) | 86.5 µM (inactive) |
| COc1ccc(S(=O)(=O)Nc2ccc(-c3csc(N4C(=O)/C(=C/c5ccccc5[N+](=O)[O-])N=C4c4ccccc4)n3)cc2)cc1Cl | 98.2 µM (inactive) | > 100 µM (inactive) | 60.5 µM (inactive) | 80.2 µM (inactive) | 20.8 µM (inactive) | > 100 µM (inactive) |  | 83 µM (inactive) | > 100 µM (inactive) | 73.6 µM (inactive) |  | > 100 µM (inactive) | 22.9 µM (inactive) | > 100 µM (inactive) | 32.6 µM (inactive) | 19.7 µM (inactive) | 30.8 µM (inactive) | 39.5 µM (inactive) | 23.2 µM (inactive) |
| O=S(=O)(NCn1ccc2ccccc21)c1ccccc1 | > 77.8 µM (inactive) | 37 µM (inactive) | > 100 µM (inactive) | > 100 µM (inactive) | > 100 µM (inactive) | > 100 µM (inactive) | 21.5 µM (inactive) |  | > 100 µM (inactive) | > 100 µM (inactive) | > 88.5 µM (inactive) | > 100 µM (inactive) | > 100 µM (inactive) | > 100 µM (inactive) |  |  | 31.6 µM (inactive) | > 100 µM (inactive) | 22.4 µM (inactive) |
| CNC(=O)CNC(=O)CCC(=O)OC | > 100 µM (inactive) | > 100 µM (inactive) | > 100 µM (inactive) | > 100 µM (inactive) | > 100 µM (inactive) |  |  | > 100 µM (inactive) | > 100 µM (inactive) | > 100 µM (inactive) |  | > 100 µM (inactive) |  | > 100 µM (inactive) | > 100 µM (inactive) | > 100 µM (inactive) |  | > 100 µM (inactive) |  |
| COP(=O)(OC)/C(=N\Nc1ccc([N+](=O)[O-])cc1)NCc1ccccc1 | 30.8 µM (inactive) | 43.3 µM (inactive) | 23 µM (inactive) | 17.7 µM (inactive) | 18.9 µM (inactive) | 11.2 µM (inactive) | 19.2 µM (inactive) |  | 34.3 µM (inactive) | 40.3 µM (inactive) | 20.6 µM (inactive) | 23.6 µM (inactive) | 62.5 µM (inactive) |  |  | 24.5 µM (inactive) | 20.3 µM (inactive) | 27.5 µM (inactive) | 21.2 µM (inactive) |
| CC1(O)CCn2c(=O)c3cc4ccccc4cc3c(=O)n2C1O (stereo unspecified) | > 100 µM (inactive) | > 100 µM (inactive) | > 100 µM (inactive) | > 100 µM (inactive) | > 100 µM (inactive) |  | > 100 µM (inactive) |  | > 100 µM (inactive) | > 100 µM (inactive) | > 100 µM (inactive) | > 100 µM (inactive) | > 100 µM (inactive) | > 100 µM (inactive) |  |  | > 100 µM (inactive) | > 100 µM (inactive) | > 100 µM (inactive) |
| COc1c(NC(C)=O)cc(C)cc1NC(C)=O | > 100 µM (inactive) |  | > 100 µM (inactive) | > 100 µM (inactive) |  | > 100 µM (inactive) | > 100 µM (inactive) |  | > 100 µM (inactive) |  | > 100 µM (inactive) | > 100 µM (inactive) | > 100 µM (inactive) | > 100 µM (inactive) |  | > 100 µM (inactive) | > 100 µM (inactive) | > 100 µM (inactive) | > 100 µM (inactive) |
| Oc1c(Cl)c(Cl)c(O)c(CCNc2nccs2)c1Cl | 20.5 µM (inactive) | 17.9 µM (inactive) | 22.3 µM (inactive) | 1.68 µM (inactive) | 18.4 µM (inactive) | 20.5 µM (inactive) |  | 3.67 µM (inactive) | 16.9 µM (inactive) | 23.2 µM (inactive) | 3.74 µM (inactive) | 19.1 µM (inactive) | 16.1 µM (inactive) | 19 µM (inactive) | 17.2 µM (inactive) | 38.1 µM (inactive) | 4.81 µM (inactive) | 4.58 µM (inactive) | 6.84 µM (inactive) |
| Fc1ccc2c3c([nH]c2c1)CCN(Cc1ccccc1)C3 | 16.7 µM (inactive) | 20.4 µM (inactive) |  | 21.7 µM (inactive) | 20.9 µM (inactive) | 16.9 µM (inactive) | 27.7 µM (inactive) | 22.3 µM (inactive) | 16.1 µM (inactive) | 19.9 µM (inactive) | 30.4 µM (inactive) | 15 µM (inactive) | 13.2 µM (inactive) | 19.2 µM (inactive) |  | 24.6 µM (inactive) | 18.3 µM (inactive) | 18.1 µM (inactive) | 17.3 µM (inactive) |
| CC1(C)OCC(C(O)C2OC(C)(C)OC2C=O)O1 (stereo unspecified) | > 100 µM (inactive) | > 100 µM (inactive) | > 100 µM (inactive) |  | > 100 µM (inactive) | > 100 µM (inactive) | > 100 µM (inactive) | > 100 µM (inactive) | > 100 µM (inactive) | > 100 µM (inactive) | > 100 µM (inactive) | > 100 µM (inactive) |  | > 100 µM (inactive) | > 100 µM (inactive) | > 100 µM (inactive) | > 100 µM (inactive) | > 100 µM (inactive) |  |
| Cc1c(N2CCN(C)CC2)nc2ccc(Cl)cc2c1-c1ccccc1 | 18 µM (inactive) | 14.3 µM (inactive) | 17.3 µM (inactive) | 17.6 µM (inactive) | 23.1 µM (inactive) | 16.7 µM (inactive) | 18.9 µM (inactive) |  | 14.4 µM (inactive) |  | 17.5 µM (inactive) | 18.2 µM (inactive) | > 10 µM (inactive) | 14.7 µM (inactive) |  | 17.7 µM (inactive) | 17.9 µM (inactive) | 14.5 µM (inactive) | 12.7 µM (inactive) |
| CCOC(=O)CCC1(C(=O)OCC)CCCC1=O (stereo unspecified) | > 100 µM (inactive) | > 100 µM (inactive) | > 100 µM (inactive) | > 100 µM (inactive) | > 100 µM (inactive) | > 100 µM (inactive) | 34.4 µM (inactive) |  | > 100 µM (inactive) | > 100 µM (inactive) | > 100 µM (inactive) | > 100 µM (inactive) | > 100 µM (inactive) | > 100 µM (inactive) |  | > 100 µM (inactive) | 25.4 µM (inactive) | > 100 µM (inactive) | > 100 µM (inactive) |
| O=C1NC2C(=O)N(Cc3ccccc3)C(=O)C2N1 (stereo unspecified) | > 100 µM (inactive) | > 100 µM (inactive) |  | > 100 µM (inactive) | > 100 µM (inactive) | > 100 µM (inactive) | > 100 µM (inactive) |  | > 100 µM (inactive) | > 100 µM (inactive) | > 100 µM (inactive) | > 100 µM (inactive) | > 100 µM (inactive) | > 100 µM (inactive) |  | > 100 µM (inactive) | > 100 µM (inactive) | > 100 µM (inactive) | > 100 µM (inactive) |
| CC1CC(C)C2OC2(C)C[C@H](C)C(=O)NC(C)C(=O)N(C)[C@H](Cc2c(Br)[nH]c3ccccc23)C(=O)N[C@@H](c2ccc(O)cc2)CC(=O)O1 (stereo partly specified) | 0.839 µM (active) | 0.106 µM (active) | 0.033 µM (active) | 0.111 µM (active) | 0.902 µM (active) | 0.142 µM (active) | 0.0355 µM (active) |  | 1.43 µM (inactive) | 0.824 µM (active) | 0.0417 µM (active) | 0.33 µM (active) | 0.11 µM (active) | 0.776 µM (active) |  | 0.22 µM (active) | 0.277 µM (active) | 0.703 µM (active) | 0.0723 µM (active) |
| CCC[S+]([O-])c1nc(COC(=O)NC)c(COC(=O)NC)n1C (stereo unspecified) | > 100 µM (inactive) | > 100 µM (inactive) | > 100 µM (inactive) | > 100 µM (inactive) | > 100 µM (inactive) | > 100 µM (inactive) | > 100 µM (inactive) |  | > 100 µM (inactive) | > 100 µM (inactive) | > 100 µM (inactive) | > 100 µM (inactive) | > 100 µM (inactive) | > 100 µM (inactive) |  | > 100 µM (inactive) | > 100 µM (inactive) | > 100 µM (inactive) | > 100 µM (inactive) |
